Values of other authors in patent US20030133903A1, “Compositions for treatment of prostate cancers and methods of making and using the same” (priority 2001, published 2003).

Test system: LNCaP cell line
Conditions: already published reports

CC(=O)O[C@H]1C(=O)[C@@]2(C)[C@H]([C@H](OC(=O)c3ccccc3)[C@]3(O)C[C@H](OC(=O)[C@H](O)[C@@H](NC(=O)c4ccccc4)c4ccccc4)C(C)=C1C3(C)C)[C@]1(OC(C)=O)CO[C@@H]1C[C@@H]2O [paclitaxel]
IC50: low nM or sub nM
